Laboratory results taken from patent publication US10392383B2, “3-(1H-benzo[d]imidazol-2-yl)-1H-pyrazolo[4,3-b]pyridines and therapeutic uses thereof” (Samumed, LLC, priority 2015, dated 2019).

How the values were obtained:
IL-6 (THP-1 cells) = experiment: IL-6 inhibition in LPS-stimulated THP-1 monocytes (HTRF); format: cell-based; details: Homo sapiens, IL-6 HTRF; for EC50: 500 ng/mL LPS, Table 6; for inhibition at 10 µM: LPS, Table 6, read-out: percent inhibition at 10 μM (given in parentheses for EC50 >10 μM)
Outline: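 THP-1 cells in 1% FBS pre-incubated 2 h with compound (10-point 1:3 series from 10 μM, 0.1% DMSO), then stimulated with 500 ng/mL LPS for 22 h at 37 °C. IL-6 measured by HTRF 665/620 ratio, normalized to DMSO; EC50 by four-parameter fit, or % inhibition at 10 μM when EC50 >10 μM.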

SW480 colon cancer cells = experiment: Cell viability assay (CellTiter-Blue) in SW480 cells; format: cell-based; details: Homo sapiens, 96 h, four days; for EC50: CellTiter-Blue, 10 μM to 0.0045 μM
Outline: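 4-day exposure, 37 °C/5% CO2; ~2×10^3 SW480 cells/well; 8-pt 1:3 curve, 10–0.0045 μM, duplicates vs DMSO controls. Resazurin→resorufin fluorescence readout, ~3 h. EC50 by nonlinear fit; if >10 μM, % inhibition at 10 μM reported.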

Structure (SMILES) | EC50 (IL-6 (THP-1 cells)) [µM] | inhibition at 10 µM (IL-6 (THP-1 cells)) [%] | EC50 (SW480 colon cancer cells) [µM] | inhibition at 10 µM (SW480 colon cancer cells; 10 μM, read-out: percent inhibition at 10 μM (given for EC50 of >10 μM)) [%]
O=C(Nc1cncc(-c2ccc3[nH]nc(-c4nc5c(-c6cccc(F)c6)cccc5[nH]4)c3n2)c1)C1CC1 [Compound 20, N-(5-(3-(4-(3-Fluorophenyl)-1H-benzo[d]imidazol-2-yl)-1H-pyrazolo[4,3-b]pyridin-5-yl)pyridin-3-yl)cyclopropanecarboxamide] | > 10 | 0 | 4.24 | –
O=C(Nc1cncc(-c2ccc3[nH]nc(-c4nc5c(N6CCCCC6)cccc5[nH]4)c3n2)c1)C1CC1 [Compound 188, N-(5-(3-(4-(Piperidin-1-yl)-1H-benzo[d]imidazol-2-yl)-1H-pyrazolo[4,3-b]pyridin-5-yl)pyridin-3-yl)cyclopropanecarboxamide] | > 10 | 0 | 4.54 | –
FC1(F)CCN(Cc2cncc(-c3ccc4[nH]nc(-c5nc6c(N7CCCCC7)cccc6[nH]5)c4n3)c2)C1 [Compound 194, 5-(5-((3,3-Difluoropyrrolidin-1-yl)methyl)pyridin-3-yl)-3-(4-(piperidin-1-yl)-1H-benzo[d]imidazol-2-yl)-1H-pyrazolo[4,3-b]pyridine] | > 10 | 46.9 | > 10 | 25.4
CN1CCN(c2cccc3[nH]c(-c4n[nH]c5ccc(-c6cncc(NC(=O)C7CCCC7)c6)nc45)nc23)CC1 [Compound 246, N-(5-(3-(4-(4-Methylpiperazin-1-yl)-1H-benzo[d]imidazol-2-yl)-1H-pyrazolo [4,3-b]pyridin-5-yl)pyridin-3-yl)cyclopentanecarboxamide] | > 10 | 35.7 | 8.36 | –
CC(C)(C)CC(=O)Nc1cncc(-c2ccc3[nH]nc(-c4nc5ccccc5[nH]4)c3n2)c1 [Compound 268, N-(5-(3-(1H-Benzo[d]imidazol-2-yl)-1H-pyrazolo[4,3-b]pyridin-5-yl)pyridin-3-yl)-3,3-dimethylbutanamide] | 2.5 | – | 6.95 | –
O=C(Nc1cncc(-c2ccc3[nH]nc(-c4nc5ccccc5[nH]4)c3n2)c1)C1CCCCC1 [Compound 275, N-(5-(3-(1H-Benzo[d]imidazol-2-yl)-1H-pyrazolo[4,3-b]pyridin-5-yl)pyridin-3-yl) cyclohexanecarboxamide] | 1.84 | – | 0.593 | –
c1ccc(-c2ccc3[nH]nc(-c4nc5ccccc5[nH]4)c3n2)nc1 [Compound 280, 3-(1H-Benzo[d]imidazol-2-yl)-5-(pyridin-2-yl)-1H-pyrazolo[4,3-b]pyridine] | 0.0727 | – | 1.89 | –
CCCC(=O)Nc1cncc(-c2ccc3[nH]nc(-c4nc5c(-c6ccsc6)cccc5[nH]4)c3n2)c1 [Compound 297, N-(5-(3-(4-(Thiophen-3-yl)-1H-benzo[d]imidazol-2-yl)-1H-pyrazolo[4,3-b]pyridin-5-yl)pyridin-3-yl)butyramide] | > 10 | 0 | 8.92 | –
c1ccc(CNCc2cncc(-c3ccc4[nH]nc(-c5nc6c(-c7ccsc7)cccc6[nH]5)c4n3)c2)cc1 [Compound 304, N-Benzyl-1-(5-(3-(4-(thiophen-3-yl)-1H-benzo[d]imidazol-2-yl)-1H-pyrazolo[4,3-b]pyridin-5-yl)pyridin-3-yl)methanamine] | 5.33 | – | 3.46 | –
c1csc(-c2cccc3[nH]c(-c4n[nH]c5ccc(-c6ccncc6)nc45)nc23)c1 [Compound 354, 5-(Pyridin-4-yl)-3-(4-(thiophen-2-yl)-1H-benzo[d]imidazol-2-yl)-1H-pyrazolo[4,3-b]pyridine] | > 10 | 20.4 | 2.81 | –
O=C(Nc1cncc(-c2ccc3[nH]nc(-c4nc5c(-c6cccs6)cccc5[nH]4)c3n2)c1)C1CC1 [Compound 356, N-(5-(3-(4-(Thiophen-2-yl)-1H-benzo[d]imidazol-2-yl)-1H-pyrazolo[4,3-b]pyridin-5-yl)pyridin-3-yl)cyclopropanecarboxamide] | > 10 | 25.7 | 3.75 | –
CN(C)CCNc1cc(F)cc(-c2cccc3[nH]c(-c4n[nH]c5ccc(-c6cncc(CNCC7CCCC7)c6)nc45)nc23)c1 [Compound 473, N^1-(3-(2-(5-(5-(((Cyclopentylmethyl)amino)methyl)pyridin-3-yl)-1H-pyrazolo[4,3-b]pyridin-3-yl)-1H-benzo[d]imidazol-4-yl)-5-fluorophenyl)-N^2,N^2-dimethylethane-1,2-diamine] | 4.26 | – | 2.74 | –
CN(C)CCNc1cc(F)cc(-c2cccc3[nH]c(-c4n[nH]c5ccc(-c6ccccn6)nc45)nc23)c1 [Compound 476, N^1-(3-Fluoro-5-(2-(5-(pyridin-2-yl)-1H-pyrazolo[4,3-b]pyridin-3-yl)-1H-benzo[d]imidazol-4-yl)phenyl)-N^2,N^2-dimethylethane-1,2diamine] | 8.75 | – | 1.44 | –
CS(=O)(=O)NCc1cc(F)cc(-c2cccc3[nH]c(-c4n[nH]c5ccc(-c6cncc(CNCc7ccccc7)c6)nc45)nc23)c1 [Compound 500, N-(3-(2-(5-(5-((Benzylamino)methyl)pyridin-3-yl)-1H-pyrazolo[4,3-b]pyridin-3-yl)-1H-benzo[d]imidazol-4-yl)-5-fluorobenzyl)methanesulfonamide] | 1.34 | – | 3.1 | –
CS(=O)(=O)NCc1cc(F)cc(-c2cccc3[nH]c(-c4n[nH]c5ccc(-c6cncnc6)nc45)nc23)c1 [Compound 503, N-(3-Fluoro-5-(2-(5-(pyrimidin-5-yl)-1H-pyrazolo[4,3-b]pyridin-3-yl)-1H-benzo[d]imidazol-4-yl)benzyl)methanesulfonamide] | 3.71 | – | 8.14 | –
Fc1cccc(-c2cccc3[nH]c(-c4n[nH]c5ccc(-c6cncc(OCCN7CCCC7)c6)nc45)nc23)c1 [Compound 514, 3-(4-(3-Fluorophenyl)-1H-benzo[d]imidazol-2-yl)-5-(5-(2-(pyrrolidin-1-yl)ethoxy)pyridin-3-yl)-1H-pyrazolo[4,3-b]pyridine] | 0.727 | – | 1.12 | –
c1cncc(-c2cccc3[nH]c(-c4n[nH]c5ccc(-c6cncc(OC7CCCCC7)c6)nc45)nc23)c1 [Compound 559, 5-(5-(Cyclohexyloxy)pyridin-3-yl)-3-(4-(pyridin-3-yl)-1H-benzo[d]imidazol-2-yl)-1H-pyrazolo[4,3-b]pyridine] | 0.0028 | – | 3.31 | –
Oc1cncc(-c2ccc3[nH]nc(-c4nc5c(-c6cccnc6)cccc5[nH]4)c3n2)c1 [Compound 565, 5-(3-(4-(Pyridin-3-yl)-1H-benzo[d]imidazol-2-yl)-1H-pyrazolo[4,3-b]pyridin-5-yl)pyridin-3-ol] | 0.232 | – | 1.14 | –
c1cc(N2CCCCC2)c2nc(-c3n[nH]c4ccc(-c5cncc(OCCN6CCCC6)c5)nc34)[nH]c2c1 [Compound 610, 3-(4-(Piperidin-1-yl)-1H-benzo[d]imidazol-2-yl)-5-(5-(2-(pyrrolidin-1-yl)ethoxy)pyridin-3-yl)-1H-pyrazolo[4,3-b]pyridine] | 0.695 | – | 2.69 | –
COc1cncc(-c2ccc3[nH]nc(-c4nc5c(N6CCCCC6)cccc5[nH]4)c3n2)c1 [Compound 612, 5-(5-Methoxypyridin-3-yl)-3-(4-(piperidin-1-yl)-1H-benzo[d]imidazol-2-yl)-1H-pyrazolo[4,3-b]pyridine] | > 10 | 34.2 | 4.05 | –
